Measurements taken from patent US8981068B2, “Compositions of standardized mixtures for determining an amount of a nucleic acid” (Gene Express, Inc., priority 2005, dated 2015).

Experiments:
[1] = tested on: cytochrome p450 (CYP) IAI gene; assay: MC RT-PCR with Celi competitive templates: induction of CYPIAI gene expression in β-napthoflavone-exposed BEP2D cells; assay type: cell-based, human; settings: β-napthoflavone 10 μM, varying times, control 0.1% DMSO, cDNA loading matched by GAPDH native/competitive template bands
Method: (§1) In a second set of experiments, multiplex competitive reverse transcriptase polymerase chain reaction (MC RT-PCR) with competitive templates were prepared by the Celi method to evaluate the cytochrome p450 (CYP) IAI gene in β-napthoflavone-exposed BEP2D cells. The induction of CYPIAI gene expression was evaluated using both MC RT-PCR with Celi competitive templates, and Northern analysis. Competitive templates were prepared for both the CYPIAI and GAPDH genes. The primers used to prepare the competitive template for GAPDH were: […]
The PCR amplification conditions were the same as described for experiments using the competitive templates prepared for GAPDH and GSHPx by the Higuchi method except the annealing temperature was 55 degrees centigrade and the amplification was carried out for 38 cycles.
Because the native and competitive templates separate without prior restriction endonuclease digestion, samples were taken directly from the PCR reaction tube and applied to ethidium bromide stained 3% Nusieve, 1% LE agarose gels. It was then possible to quantify the products by taking a negative photograph of the gel using Polaroid 665 positive/negative instant film, subjecting the negative photograph to densitometry. […]

[2] = tested on: cytochrome p450 IA1 (CYPIA1); assay: Northern analysis of CYPIAI gene expression in β-napthoflavone-exposed BEP2D cells; assay type: cell-based, human; settings: β-napthoflavone 10 μM, varying times, control 0.1% DMSO, 32P-labeled CYPIAI cDNA probe
Method: as §1
RNA from BEP2D cells incubated for varying times with β-napthoflavone (10 μM) was either electrophoresed on a 1% LE formaldehyde denaturing gel for Northern analysis or MC RT-PCR amplified, as described above. For Northern analysis, following transfer of the RNA to GeneScreen, the filters were hybridized with ^32P-labeled CYPIAI cDNA.

Question: With `O=c1cc(-c2ccccc2)oc2ccc3ccccc3c12` [β-napthoflavone] as the compound, how does the “band representing the native CYPIAI gene, exposed cells compared to control cells” value [1] read?
Answer: much more strongly represented

Question: And the “CYPIAI gene expression by Northern analysis” value [2]?
Answer: increase
